Among the data in ChEMBL document CHEMBL4417631, “Oral peptide inhibitors of interleukin-23 receptor and their use to treat inflammatory bowel diseases” (2017) are IC50 and half-life values, retold here.

A value given as a limit tells only on which side of the number the result lay.

Data set [1] concerns the target T1, Interleukin-23 receptor (Homo sapiens, UniProt Q5VWK5).
T1 sequence (Q5VWK5 whole entry): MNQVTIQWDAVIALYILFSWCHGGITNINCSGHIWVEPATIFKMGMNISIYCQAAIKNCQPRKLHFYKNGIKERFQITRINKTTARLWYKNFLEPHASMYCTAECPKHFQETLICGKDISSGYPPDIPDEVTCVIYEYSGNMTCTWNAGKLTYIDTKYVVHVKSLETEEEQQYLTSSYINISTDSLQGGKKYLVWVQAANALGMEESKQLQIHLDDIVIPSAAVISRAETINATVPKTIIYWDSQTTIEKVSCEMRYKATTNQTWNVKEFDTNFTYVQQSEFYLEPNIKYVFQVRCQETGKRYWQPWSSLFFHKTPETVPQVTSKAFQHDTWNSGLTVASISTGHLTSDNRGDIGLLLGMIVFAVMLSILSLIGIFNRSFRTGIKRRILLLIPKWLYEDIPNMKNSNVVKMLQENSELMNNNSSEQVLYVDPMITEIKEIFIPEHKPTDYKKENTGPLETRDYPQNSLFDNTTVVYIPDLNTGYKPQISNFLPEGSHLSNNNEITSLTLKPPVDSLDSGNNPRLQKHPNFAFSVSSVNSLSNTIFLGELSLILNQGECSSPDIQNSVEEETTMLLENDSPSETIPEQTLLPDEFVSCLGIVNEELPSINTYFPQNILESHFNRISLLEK
In words: Inhibition of interleukin-23 binding to human interleukin-23 receptor incubated for 2 hrs by competitive binding ELISA. In general terms: In an ELISA, binding on a coated surface is turned into a signal by an enzyme label.

Data set [2] in a line: Half life in simulated intestinal fluid at 20 uM by LC-MS/MS analysis. The format is ADME.
The target in data set [3] is T1, Interleukin-23 receptor. In words: Inhibition of interleukin-23 receptor in human DB cells assessed as reduction in IL-23-stimulated STAT3 phosphorylation incubated for 30 mins by HTRF assay. The class given is cell-based.
Data set [4] is described as follows: Half life in simulated gastric fluid at 20 uM by LC-MS/MS analysis. The class given is ADME.

Usually IC50 stands for the concentration that inhibits the measured activity by half. As usually defined, the half-life is the time in which the quantity being followed falls by half. Lower therefore signals rapid decline. In the case of `CC(=O)NCCCC[C@H](NC(=O)C(C)(C)NC(=O)[C@H](Cc1ccc2ccccc2c1)NC(=O)[C@H](Cc1ccc(OCCN)cc1)NC(=O)[C@@H](NC(=O)[C@H](CCC(N)=O)NC(=O)[C@H](Cc1c[nH]c2ccccc12)NC(=O)[C@@H](NC(=O)[C@H](CCC(N)=O)NC(=O)[C@@H](NC(C)=O)C(C)(C)S)[C@@H](C)O)C(C)(C)S)C(=O)N[C@@H](CC(N)=O)C(=O)N[C@@H](CCC(N)=O)C(N)=O`, the IC50 at Interleukin-23 receptor [1] and on Interleukin-23 receptor [3] was less than 10 nM each time. Moreover, the half-life at 20 µM in data set [2] and in data set [4] was greater than 6 h each time.
Regarding `CC(=O)N[C@H](C(=O)N[C@@H](CCC(N)=O)C(=O)N[C@H](C(=O)N[C@@H](Cc1c[nH]c2ccccc12)C(=O)N[C@@H](CCC(N)=O)C(=O)N[C@H](C(=O)N[C@@H](Cc1ccc(OCCN)cc1)C(=O)N[C@@H](Cc1ccc2ccccc2c1)C(=O)NC(C)(C)C(=O)N[C@@H](CCC(=O)O)C(=O)N[C@@H](CC(N)=O)C(=O)N[C@@H](CC(N)=O)C(N)=O)C(C)(C)S)[C@@H](C)O)C(C)(C)S`, the IC50 on Interleukin-23 receptor [1] and at Interleukin-23 receptor [3] was less than 10 nM throughout. For the same compound, the half-life at 20 µM in data set [2] and in data set [4] was greater than 6 h each time.
As for `CC(=O)NCCCC[C@H](NC(=O)[C@](C)(CCCN)NC(=O)[C@H](Cc1ccc2ccccc2c1)NC(=O)[C@H](Cc1ccc(OCCN)cc1)NC(=O)[C@@H]1CSCC[C@H](NC(C)=O)C(=O)N[C@@H](CCC(N)=O)C(=O)N[C@@H]([C@@H](C)O)C(=O)N[C@@H](Cc2c[nH]c3ccccc23)C(=O)N[C@@H](CCC(N)=O)C(=O)N1)C(=O)N[C@@H](CC(N)=O)C(=O)NCC(N)=O`, the IC50 at Interleukin-23 receptor [1] and on Interleukin-23 receptor [3] was less than 10 nM throughout. In addition, the half-life at 20 µM in data set [2] and in data set [4] was 3 to 6 h throughout.
As to `COc1ccc(C[C@H](NC(=O)[C@@H](NC(=O)[C@H](CCC(N)=O)NC(=O)[C@H](Cc2c[nH]c3ccccc23)NC(=O)[C@@H](NC(=O)[C@H](CCC(N)=O)NC(=O)[C@@H](NC(C)=O)C(C)(C)S)[C@@H](C)O)C(C)(C)S)C(=O)N[C@@H](Cc2ccc3ccccc3c2)C(=O)NC(C)(C)C(=O)N[C@@H](CCCCNC(C)=O)C(=O)N[C@@H](CC(N)=O)C(=O)N[C@@H](CC(N)=O)C(N)=O)cc1`, the half-life at 20 µM is 3 to 6 h in data set [2] and greater than 6 h in data set [4]. For the same compound, the IC50 on Interleukin-23 receptor [3] is less than 10 nM.
With `CC(=O)NCCCC[C@](C)(NC(=O)[C@H](Cc1ccc2ccccc2c1)NC(=O)[C@H](Cc1ccc(OCCNC(C)=O)cc1)NC(=O)[C@@H](NC(=O)[C@H](CCC(N)=O)NC(=O)[C@H](Cc1c[nH]c2ccccc12)NC(=O)[C@@H](NC(=O)[C@H](CCC(N)=O)NC(=O)[C@@H](NC(C)=O)C(C)(C)S)[C@@H](C)O)C(C)(C)S)C(=O)N[C@@H](CCC(=O)O)C(=O)N[C@@H](CC(N)=O)C(=O)NCC(N)=O`, the IC50 is 10 to 25 nM on Interleukin-23 receptor [1] and less than 10 nM at Interleukin-23 receptor [3]. Also, the half-life at 20 µM in data set [2] was 3 to 6 h; in data set [4], greater than 6 h.
Consider `CC(=O)NCCCC[C@H](NC(=O)C(C)(C)NC(=O)[C@H](Cc1ccc2ccccc2c1)NC(=O)[C@H](Cc1ccc(OCCN)cc1)NC(=O)[C@@H](NC(=O)[C@H](CCC(N)=O)NC(=O)[C@H](Cc1c[nH]c2ccccc12)NC(=O)[C@@H](NC(=O)[C@H](CCC(N)=O)NC(=O)[C@@H](NC(C)=O)C(C)(C)S)[C@@H](C)O)C(C)(C)S)C(=O)N[C@@H](CC(N)=O)C(=O)NCCC(N)=O`, for which the half-life at 20 µM in data set [2] and in data set [4] was greater than 6 h throughout. In addition, the IC50 on Interleukin-23 receptor [3] was less than 10 nM.
As to `COc1ccc(C[C@H](NC(=O)[C@@H](NC(=O)[C@H](CCC(N)=O)NC(=O)[C@H](Cc2c[nH]c3ccccc23)NC(=O)[C@@H](NC(=O)[C@H](CC(N)=O)NC(=O)[C@@H](NC(C)=O)C(C)(C)S)[C@@H](C)O)C(C)(C)S)C(=O)N[C@@H](Cc2ccc3ccccc3c2)C(=O)NC(C)(C)C(=O)N[C@@H](CCCCNC(C)=O)C(=O)N[C@@H](CC(N)=O)C(=O)N[C@@H](CCC(N)=O)C(N)=O)cc1`, the half-life at 20 µM in data set [2] and in data set [4] was greater than 6 h in each case. For the same compound, the IC50 at Interleukin-23 receptor [3] is less than 10 nM.
On to `CC(=O)N[C@H](C(=O)N[C@@H](CCC(N)=O)C(=O)N[C@H](C(=O)N[C@@H](Cc1c[nH]c2ccccc12)C(=O)N[C@@H](CCC(N)=O)C(=O)N[C@H](C(=O)N[C@@H](Cc1ccc(OCCN)cc1)C(=O)N[C@@H](Cc1ccc2ccccc2c1)C(=O)N[C@@H](CCC(C)C)C(=O)N[C@@H](CCC(=O)O)C(=O)N[C@@H](CC(N)=O)C(=O)N[C@@H](C)C(N)=O)C(C)(C)S)[C@@H](C)O)C(C)(C)S`, for which the half-life at 20 µM in data set [2] and in data set [4] was less than 1 h in each case. Besides, the IC50 on Interleukin-23 receptor [3] lay in the range of 10 to 25 nM.
On to `CC(=O)NCCCC[C@H](NC(=O)C(C)(C)NC(=O)[C@H](Cc1ccc2ccccc2c1)NC(=O)[C@H](Cc1ccc(OCCN)cc1)NC(=O)[C@@H](NC(=O)[C@H](CCC(N)=O)NC(=O)[C@H](Cc1c[nH]c2ccccc12)NC(=O)[C@@H](NC(=O)[C@H](CC(N)=O)NC(=O)[C@@H](NC(C)=O)C(C)(C)S)[C@@H](C)O)C(C)(C)S)C(=O)N[C@@H](CC(N)=O)C(=O)N[C@@H](CCC(N)=O)C(N)=O`, for which the half-life at 20 µM in data set [2] and in data set [4] was greater than 6 h each time. Moreover, the IC50 on Interleukin-23 receptor [3] is less than 10 nM.
For `CC(=O)NCCCC[C@H](NC(=O)C(C)(C)NC(=O)[C@H](Cc1ccc2ccccc2c1)NC(=O)[C@H](Cc1ccc(OCCN)cc1)NC(=O)[C@@H](NC(=O)[C@H](CCC(N)=O)NC(=O)[C@H](Cc1c[nH]c2ccccc12)NC(=O)[C@@H](NC(=O)[C@@H](NC(=O)[C@@H](NC(C)=O)C(C)(C)S)[C@@H](C)O)[C@@H](C)O)C(C)(C)S)C(=O)N[C@@H](CC(N)=O)C(=O)N[C@@H](CC(N)=O)C(N)=O`, the half-life at 20 µM in data set [2] and in data set [4] was greater than 6 h each time. Also, the IC50 on Interleukin-23 receptor [3] was less than 10 nM.
With `COc1ccc(C[C@H](NC(=O)[C@@H](NC(=O)[C@H](CCC(N)=O)NC(=O)[C@H](Cc2c[nH]c3ccccc23)NC(=O)[C@@H](NC(=O)[C@H](CC(N)=O)NC(=O)[C@@H](NC(C)=O)C(C)(C)S)[C@@H](C)O)C(C)(C)S)C(=O)N[C@@H](Cc2ccc3ccccc3c2)C(=O)NC(C)(C)C(=O)N[C@@H](CCCCNC(C)=O)C(=O)N[C@@H](CC(N)=O)C(=O)N[C@@H](CC(N)=O)C(N)=O)cc1`, the half-life at 20 µM in data set [2] and in data set [4] was greater than 6 h in each case. Moreover, the IC50 at Interleukin-23 receptor [3] is less than 10 nM.
Take `COc1ccc(C[C@H](NC(=O)[C@@H](NC(=O)[C@H](CCC(N)=O)NC(=O)[C@H](Cc2c[nH]c3ccccc23)NC(=O)[C@@H](NC(=O)[C@H](CC(N)=O)NC(=O)[C@@H](NC(C)=O)C(C)(C)S)[C@@H](C)O)C(C)(C)S)C(=O)N[C@@H](Cc2ccc3ccccc3c2)C(=O)N[C@@H](CCC(C)C)C(=O)N[C@@H](CCCCNC(C)=O)C(=O)N[C@@H](CC(N)=O)C(=O)NCCC(N)=O)cc1`: the half-life at 20 µM in data set [2] and in data set [4] was less than 1 h throughout. At Interleukin-23 receptor [3], the concentration for half-maximal inhibition (IC50) is less than 10 nM.
On to `CC(=O)NCCCC[C@H](NC(=O)C(C)(C)NC(=O)[C@H](Cc1ccc2ccccc2c1)NC(=O)[C@H](Cc1ccc(OCCN)cc1)NC(=O)[C@@H](NC(=O)[C@H](CCC(N)=O)NC(=O)[C@H](Cc1c[nH]c2ccccc12)NC(=O)[C@@H](NC(=O)[C@H](CC(N)=O)NC(=O)[C@@H](NC(C)=O)C(C)(C)S)[C@@H](C)O)C(C)(C)S)C(=O)N[C@@H](CC(N)=O)C(=O)N[C@@H](C)C(N)=O`, for which the half-life at 20 µM in data set [2] and in data set [4] was greater than 6 h in each case. Further, at Interleukin-23 receptor [3], the IC50 is less than 10 nM.
As to `COc1ccc(C[C@H](NC(=O)[C@@H](NC(=O)[C@H](CCC(N)=O)NC(=O)[C@H](Cc2c[nH]c3ccccc23)NC(=O)[C@@H](NC(=O)[C@H](CCC(N)=O)NC(=O)[C@@H](NC(C)=O)C(C)(C)S)[C@@H](C)O)C(C)(C)S)C(=O)N[C@@H](Cc2ccc3ccccc3c2)C(=O)NC(C)(C)C(=O)N[C@@H](CCC(=O)O)C(=O)N[C@@H](CC(N)=O)C(=O)N[C@@H](CC(N)=O)C(N)=O)cc1`, the half-life at 20 µM in data set [2] was 2 to 3 h; in data set [4] it was greater than 6 h. For the same compound, the IC50 on Interleukin-23 receptor [3] was less than 10 nM.
For the compound `CC(=O)NCCCC[C@H](NC(=O)[C@H](CCC(C)C)NC(=O)[C@H](Cc1ccc2ccccc2c1)NC(=O)[C@H](Cc1ccc(OCCN)cc1)NC(=O)[C@@H](NC(=O)[C@H](CCC(N)=O)NC(=O)[C@H](Cc1c[nH]c2ccccc12)NC(=O)[C@@H](NC(=O)[C@H](CC(N)=O)NC(=O)[C@@H](NC(C)=O)C(C)(C)S)[C@@H](C)O)C(C)(C)S)C(=O)N[C@@H](CC(N)=O)C(=O)NCCC(N)=O`, the half-life at 20 µM in data set [2] and in data set [4] was less than 1 h each time. Also, the IC50 on Interleukin-23 receptor [3] was less than 10 nM.
Consider `COc1ccc(C[C@H](NC(=O)[C@@H](NC(=O)[C@H](CCC(N)=O)NC(=O)[C@H](Cc2c[nH]c3ccccc23)NC(=O)[C@@H](NC(=O)[C@H](CC(N)=O)NC(=O)[C@@H](NC(C)=O)C(C)(C)S)[C@@H](C)O)C(C)(C)S)C(=O)N[C@@H](Cc2ccc3ccccc3c2)C(=O)NC(C)(C)C(=O)N[C@@H](CCC(=O)O)C(=O)N[C@@H](CC(N)=O)C(=O)N[C@@H](CC(N)=O)C(N)=O)cc1`, for which the half-life at 20 µM in data set [2] is 2 to 3 h; in data set [4], greater than 6 h. Further, on Interleukin-23 receptor [3], the IC50 is less than 10 nM.
